{"source": "patent EP4803523A1", "about": "“FUSED HETEROARYL COMPOUND, PREPARATION METHOD THEREFOR, AND USE THEREOF IN MEDICINE” (Jiangsu Hengrui Pharmaceuticals Co., Ltd., priority 2023, dated 2025)", "key": {"[1]": {"assay": "Pharmacokinetic evaluation, mouse experiment (oral gavage, plasma LC-MS/MS)", "assay_type": "in vivo", "details": "balb/c nude mice, female, oral gavage (i.g.), 20.0 mg/kg", "method": "Using balb/c nude mice as the test animals, the plasma concentrations of the example compounds at different time points were determined by LC-MS/MS following oral gavage (i.g.) administration. The pharmacokinetic behaviours of the compounds of the present disclosure in mice were investigated, and their pharmacokinetic profiles were evaluated.\nNine balb/c nude mice, female, were provided by Beijing Vital River Laboratory Animal Technology Co., Ltd. (Production License Number: SCXK(Zhejiang) 2024-0001).\nA given amount of the test compound was weighed and formulated with 5% DMF + 45% PG + 50% (10% HS15-pH7.4 buffer) to prepare a 2.0 mg/mL clear and colourless solution.\nThe administration dose was 20.0 mg/kg, and the administration volume was 10 mL/kg.\nBlood samples (0.1 ml) were collected from the orbit before administration and at 0.25, 0.5, 1.0, 2.0, 4.0, 6.0, 8.0, 11.0, and 24.0 hours after administration. The samples were placed in EDTA-K2 anticoagulant tubes, centrifuged at 10,000 rpm for 1 minute (4°C), and the plasma was separated within 1 hour and stored at -20°C or -80°C until analysis. The entire process from blood collection to centrifugation was performed in ice bath conditions. Food was provided 2 hours after administration.\nThe concentration of the test compound in mouse plasma after administration was determined as follows: 20 µL of the plasma sample collected at each time point after administration was taken, and 200 µL of internal standard acetonitrile solution (containing 20 ng/mL verapamil) was added. The mixture was vortexed and then centrifuged at 4000 rpm for 15 minutes; the supernatant was taken for LC-MS/MS analysis."}, "in vivo": {"assay": "in vivo", "details": "both, SD, rat, plasma, po", "experimental": "Using SD rats as the test animals, the plasma concentrations of the example compounds at different time points were determined by LC-MS/MS following oral gavage (i.g.) administration. The pharmacokinetic behaviours of the compounds of the present disclosure in rats were investigated, and their pharmacokinetic profiles were evaluated.\nBlood samples (0.2 mL) were collected from the orbit before administration and at 0.25, 0.5, 1.0, 2.0, 4.0, 6.0, 8.0, 11.0, and 24.0 hours after administration. The samples were placed in EDTA-K2 anticoagulant tubes, centrifuged at 10,000 rpm for 2 minute (4°C), and the plasma was separated within 1 hour and stored at -20°C or -80°C until analysis. The entire process from blood collection to centrifugation was performed in ice bath conditions.\nThe mixture was vortexed and then centrifuged at 4000 rpm for 15 minutes; the supernatant was taken for LC-MS/MS analysis. […] The mixture was vortexed and then centrifuged at 3700 rpm for 10 minutes; the supernatant was taken for LC-MS/MS analysis.\nThe mixture was vortexed and then centrifuged at 4000 rpm for 15 minutes; the supernatant was taken for LC-MS/MS analysis. […] The mixture was vortexed and then centrifuged at 4000 rpm for 15 minutes; the supernatant was taken for LC-MS/MS analysis."}, "GP2d": {"test_system": "GP2d", "assay": "3D cell proliferation inhibition assay (CellTiter-Glo 3D)", "assay_type": "cell-based", "details": "GP2d, 120 h, GP2d cells, KRAS G12D, 3D culture, 5 days with compound", "method": "(§1) This experiment uses the cells listed in the table below to evaluate the inhibitory effects of the compounds on the proliferation of KRAS mutant or KRAS amplified cells.\n(§2) On the first day of the experiment, cells that were growing well and had reached 70%-80% confluence were digested, resuspended in culture medium, and the cell density was adjusted to the desired level. In a U-shaped low-attachment 96-well plate (Corning, 7007), 90 µL of cell suspension was added per well, with the cell density as shown in the table above. The cell plate was centrifuged at 2500 rpm for 5 minutes and then placed in an incubator for 24 hours of culture. On the second day, the 20 mM test compound dissolved in DMSO was diluted with DMSO to the first concentration of 2 or 0.2 mM, and then serially diluted in a 5-fold gradient to obtain 9 concentration points, with the control well containing DMSO. The serially diluted compound was then further diluted 20-fold with culture medium. 10 µL of the test compound diluted in culture medium was added to each well of the cell plate. The final concentrations of the compound were 9 points in a 5-fold serial dilution starting from 10 or 1 µM. Cell wells containing 0.5% DMSO were set as vehicle control wells, and wells containing only culture medium and 0.5% DMSO were set as blank control wells. The cell plate was centrifuged at 2000 rpm for 3 minutes and then placed in an incubator for 5 days of culture. On the seventh day, the 96-well cell culture plate was taken out, and 50 µL of the luminescent cell viability detection reagent, CellTiter-Glo® 3D Cell Viability Assay (Promega, G9683), was added to each well. After shaking at room temperature for 25 minutes, the mixture was pipetted up and down to mix, and 100 µL was transferred from each well to a white, opaque-bottom OptiPlate™-96 well plate (PerkinElmer, 6005290). The luminescence signal value was read using a multimode microplate reader (PerkinElmer, EnVision2105).\n(§3) The inhibition rate was calculated using the following formula: Inhibition rate = (Luminescence value vehicle control well - Luminescence value test compound)/(Luminescence value vehicle control well - Luminescence value blank control well) × 100%. The IC50 values of the compound inhibitory activity were calculated using Graphpad Prism software. Table 1. Data of inhibitory activity on 3D cell proliferation (unit: nM)"}, "AsPC-1": {"test_system": "AsPC-1", "assay": "3D cell proliferation inhibition assay (CellTiter-Glo 3D)", "assay_type": "cell-based", "details": "Homo sapiens, ASPC1, 120 h; AsPC-1 cells, KRAS G12D, 3D culture, 5 days with compound", "method": "as §1, §2, §3"}, "AGS": {"test_system": "AGS", "assay": "3D cell proliferation inhibition assay (CellTiter-Glo 3D)", "assay_type": "cell-based", "details": "Homo sapiens, 120 h; AGS cells, KRAS G12D, 3D culture, 5 days with compound", "method": "as §1, §2, §3"}}, "data": [{"compound": "C[C@@H](O)CN1CC2CCC(C1)N2c1nc(OCC2(CN3CCC(=C(F)F)CC3)CC2)nc2c(F)c(-c3ncc(F)c4sc(N)c(C#N)c34)c3c(c12)COC3", "note": "[Example 2, 2-amino-4-(3-((1-((4-(difluoromethylene)piperidin-1-yl)methyl)cyclopropyl)methoxy)-5-fluoro-1-(3-((R)-2-hydroxypropyl)-3,8-diazabicyclo[3.2.1]oct-8-yl)-7,9-dihydrofuro[3,4-f]quinazolin-6-yl)-7-fluorothieno[3,2-c]pyridine-3-carbonitrile]", "values": [{"measurement": "Vd/F", "setting": "[1]; read-out: Apparent volume of distribution Vz/F", "value": 9.07, "unit": "L/kg"}, {"measurement": "AUC(0-t)", "setting": "[1]; read-out: Area under the curve AUC0-t", "value": 9100, "unit": "ng·h/mL"}, {"measurement": "CL/F", "setting": "[1]; read-out: Clearance CL/F", "value": 36.5, "unit": "mL/min/kg"}, {"measurement": "half-life", "setting": "[1]; read-out: Half life T1/2 (converted)", "value": 2.87, "unit": "h"}, {"measurement": "Cmax", "setting": "[1]; read-out: Plasma concentration Cmax", "value": 1060, "unit": "ng/mL"}, {"measurement": "AUC(0-t)", "setting": "in vivo; 20 mg/kg", "value": 5170, "unit": "ng·h/mL"}, {"measurement": "CL/F", "setting": "in vivo; 20 mg/kg", "value": 65.5, "unit": "mL/min/kg"}, {"measurement": "Cmax", "setting": "in vivo; 20 mg/kg", "value": 377, "unit": "ng/mL"}, {"measurement": "Vd/F", "setting": "in vivo; 20 mg/kg", "value": 28, "unit": "L/kg"}, {"measurement": "half-life", "setting": "in vivo; 20 mg/kg", "value": 5.52, "unit": "h"}, {"measurement": "AUC(0-t)", "setting": "in vivo; 40 mg/kg", "value": 17600, "unit": "ng·h/mL"}, {"measurement": "CL/F", "setting": "in vivo; 40 mg/kg", "value": 36.7, "unit": "mL/min/kg"}, {"measurement": "Cmax", "setting": "in vivo; 40 mg/kg", "value": 1170, "unit": "ng/mL"}, {"measurement": "Vd/F", "setting": "in vivo; 40 mg/kg", "value": 19.6, "unit": "L/kg"}, {"measurement": "half-life", "setting": "in vivo; 40 mg/kg", "value": 6.7, "unit": "h"}, {"measurement": "IC50", "setting": "GP2d", "value": 1.79, "unit": "nM"}, {"measurement": "IC50", "setting": "AsPC-1", "value": 6.18, "unit": "nM"}, {"measurement": "IC50", "setting": "AGS", "value": 2.36, "unit": "nM"}]}]}
